Assay results published in patent EP3748362A1, “IN VITRO METHOD FOR DETECTING RENAL DISEASE” (Fundacion Instituto De Investigacion Sanitaria Fundacion …, priority 2019, dated 2020).
“Also recorded” adds a separate entry of the source.

Experiments:
[1] = tested on: proinflammatory gene expression; assay: Proinflammatory gene expression (real time PCR) in PBMCs from ESRD patients; type: in vivo, human; details: ESRD patients treated with paricalcitol vs untreated ESRD hemodialysis patients
Procedure: Intracellular protein and mRNA levels were measured in PBMCs from ESRD patients on hemodialysis. Inclusion criteria were as follows: age >45 years; male sex; informed consent; and absence of active inflammatory, infectious, or malignant diseases at the initiation or during the study. This study was approved by the IIS-Fundación Jiménez Diaz Ethics Committee. Patients were enrolled after providing written informed consent. PBMCs were separated from whole blood samples (30 ml into EDTA tubes) by a density gradient centrifugation method using Ficoll density gradient centrifugation. In total, 50x10^6 of PBMCs were obtained from 30 ml of whole blood and 6x10^6 PBMCs were used to isolate protein, RNA and nuclear/cytosolic protein levels using the NE-PER Reagent (Pierce) following the manufacturer's instructions.
Total RNA was isolated from cells and mouse kidney samples with Trizol (Invitrogen). The cDNA was synthesized using the High-Capacity cDNA Archive Kit (Applied Biosystems) using 2 µg total RNA primed with random hexamer primers. […] The mRNA copy numbers were calculated for each sample by the instrument software using Ct value. Results are expressed in copy numbers, calculated relative to unstimulated cells or control mice, after normalization against 18S.

[2] = tested on: NF-κB1; assay: Canonical NF-κB1 activation in kidneys of TWEAK-injected mice; type: in vivo; details: kidneys from TWEAK-injected mice; paricalcitol 750 ng/kg/day
Procedure: (§1) All animal procedures were performed according to the guidelines of animal research in the European Community and with prior approval by the Ethics Committee of the Health Research of the IIS-Fundacion Jiménez Díaz. For in vivo studies, mice received a daily intraperitoneal injection of the VDRA Paricalcitol starting 48 hours prior to induction of kidney damage.
(§2) At the time of sacrifice, animals were anesthetized with 5 mg/kg xylazine (Rompun, Bayer AG) and 35 mg/kg ketamine (Ketolar, Pfizer) and the kidneys perfused in situ with cold saline before removal. Then, kidney portions were fixed in formalin buffer for immunohistochemistry studies or immediately frozen in liquid nitrogen for gene and protein studies.
TWEAK administration: C57BL/6 female mice (9-12 weeks, weight 20 g, 7-8 animals per group), received a single intraperitoneal injection of 0.5 µg TWEAK dissolved in saline and were sacrificed 24 hours later, as previously described (Sanz et al. 2008). Controls were injected with the saline vehicle (n=8-10 mice per group). TWEAK endotoxin level were <0.1 ng/mg, confirmed by MALDI-TOF. […]
(§3) For western blot, cell (25 µg/lane) and kidney (100-150 µg/lane) protein extracts were separated on 6%-12% polyacrylamide-SDS gels under reducing conditions. […] Autoradiographs were scanned using the Gel Doc™ EZ imager and analyzed with the Image Lab 3.0 software (BioRad).

[3] = tested on: NF-κB2; assay: Non-canonical NF-κB2 activation and NF-κB2 targets in kidneys of TWEAK-injected mice; type: in vivo
Procedure: as §1, §2
TWEAK administration: C57BL/6 female mice (9-12 weeks, weight 20 g, 7-8 animals per group), received a single intraperitoneal injection of 0.5 µg TWEAK dissolved in saline and were sacrificed 24 hours later, as previously described (Sanz et al. 2008). Controls were injected with the saline vehicle (n=8-10 mice per group). TWEAK endotoxin level were <0.1 ng/mg, confirmed by MALDI-TOF. Some animals received paricalcitol 750 ng/kg/day, or the NF-κB2 inhibitor SN52, 0.7 mg/mouse/day, starting 48 hours before TWEAK administration. Animals were sacrificed 24 hours later. The dose of paricalcitol was chosen based on prior experience in mild inflammatory kidney conditions.
Paraffin-embedded kidney sections (3 µm) were stained using conventional methods. Antigen retrieval was performed by PTlink link system (Dako Diagnostics) with sodium citrate buffer (10 mmol/L) adjusted to pH 6-9 depending on the immunohistochemical marker, followed by immunohistochemical staining in a Dako Autostainer. Steps: 1) endogenous peroxidase blockade; 2) primary antibodies incubation; anti-CD3 (1:300; Dako) or anti-F4/80 (1:5000; Serotec); NF-κB p-p65 (1:200; Cell Signalling); NF-κB2 p52 (1:50; Cell Signaling); RelB (1:50; Santa Cruz Biotechnology); CCL21 (1:90; Santa Cruz Biotechnology); 3) washing; 4) DUOFLEX Doublestain EnVision™ treatment, using 3,3'-diaminobenzidine as chromogen. For F4/80 staining a rabbit anti-rat linker was used before EnVision. Sections were counterstained with Carazzi's hematoxylin. […] For each sample (processed by duplicate in a blinded manner), the average value was obtained from the analysis of 4 fields (20X objective) as density/mm2 or percentage stained area vs total analyzed area. Data are expressed as fold increase over control mice, as mean ± SEM of 8-10 animals per group. […]
For western blot, cell (25 µg/lane) and kidney (100-150 µg/lane) protein extracts were separated on 6%-12% polyacrylamide-SDS gels under reducing conditions. […] Autoradiographs were scanned using the Gel Doc™ EZ imager and analyzed with the Image Lab 3.0 software (BioRad). […]

[4] = tested on: NF-κB1; assay: Canonical NF-κB1 activation, folic acid-induced renal injury in mice; type: in vivo; details: folic acid 300 mg/kg model; paricalcitol 25 µg/kg/day i.p.
Procedure: as §1, §2
Folic acid nephropathy is a classical model of kidney tubulointerstitial injury and inflammation that has been reported in humans. Mice received a single intraperitoneal injection of folic acid (Sigma) 300 mg/kg in 0.3 mol/l sodium bicarbonate or vehicle, and were sacrificed 48 hours later. […]
as §3

[5] = Renal function (serum BUN), folic acid-induced renal injury in mice; type: in vivo; details: folic acid 300 mg/kg model; paricalcitol 25 µg/kg/day i.p.
Procedure: as §1
Folic acid nephropathy is a classical model of kidney tubulointerstitial injury and inflammation that has been reported in humans. Mice received a single intraperitoneal injection of folic acid (Sigma) 300 mg/kg in 0.3 mol/l sodium bicarbonate or vehicle, and were sacrificed 48 hours later. Two groups were studied; untreated or paricalcitol treated (25 µg/kg/day, i.p., Abbot), n=7-8 per group starting 48 hours before FA injection. The dose of paricalcitol was chosen based on dose-finding preliminary experiments.

C[C@H](/C=C/[C@H](C)C(C)(C)O)[C@H]1CC[C@H]2/C(=C/C=C3C[C@@H](O)C[C@H](O)C3)CCC[C@]12C [paricalcitol]
proinflammatory gene expression levels [1]: significantly lower | IκBα phosphorylation and nuclear p65 NF-κB levels [2]: not modulated; also recorded: not modified | renal CCL21A and CCL19 gene expression ([3]; paricalcitol 750 ng/kg/day or SN52 0.7 mg/mouse/day, real time PCR): reduced | TWEAK-induced NF-κB2 activation in the kidney: nuclear p52 and RelB accumulation in tubular epithelial cells ([3]; paricalcitol 750 ng/kg/day, immunohistochemistry, western blot): reduced | TWEAK-induced p52 and RelB DNA binding activities ([3]; renal nuclear protein extracts, paricalcitol 750 ng/kg/day, ELISA): inhibited | CCL21 protein levels ([3]; total kidney proteins, paricalcitol 750 ng/kg/day, western blot): reduced | NF-κB1 activation, evaluated by IκB-α phosphorylation [4]: not modified | renal function assessed by serum BUN levels [5]: restored changes in renal function
